The values that follow come from the Kinase Knowledgebase extract (Sharma et al. 2016).

The target in this assay is PIK3CA (human) (UniProt P42336). In words: Assessment of PI3KCA Kinase Activity.
Chain of PIK3CA (human) (P42336 whole entry, looked up): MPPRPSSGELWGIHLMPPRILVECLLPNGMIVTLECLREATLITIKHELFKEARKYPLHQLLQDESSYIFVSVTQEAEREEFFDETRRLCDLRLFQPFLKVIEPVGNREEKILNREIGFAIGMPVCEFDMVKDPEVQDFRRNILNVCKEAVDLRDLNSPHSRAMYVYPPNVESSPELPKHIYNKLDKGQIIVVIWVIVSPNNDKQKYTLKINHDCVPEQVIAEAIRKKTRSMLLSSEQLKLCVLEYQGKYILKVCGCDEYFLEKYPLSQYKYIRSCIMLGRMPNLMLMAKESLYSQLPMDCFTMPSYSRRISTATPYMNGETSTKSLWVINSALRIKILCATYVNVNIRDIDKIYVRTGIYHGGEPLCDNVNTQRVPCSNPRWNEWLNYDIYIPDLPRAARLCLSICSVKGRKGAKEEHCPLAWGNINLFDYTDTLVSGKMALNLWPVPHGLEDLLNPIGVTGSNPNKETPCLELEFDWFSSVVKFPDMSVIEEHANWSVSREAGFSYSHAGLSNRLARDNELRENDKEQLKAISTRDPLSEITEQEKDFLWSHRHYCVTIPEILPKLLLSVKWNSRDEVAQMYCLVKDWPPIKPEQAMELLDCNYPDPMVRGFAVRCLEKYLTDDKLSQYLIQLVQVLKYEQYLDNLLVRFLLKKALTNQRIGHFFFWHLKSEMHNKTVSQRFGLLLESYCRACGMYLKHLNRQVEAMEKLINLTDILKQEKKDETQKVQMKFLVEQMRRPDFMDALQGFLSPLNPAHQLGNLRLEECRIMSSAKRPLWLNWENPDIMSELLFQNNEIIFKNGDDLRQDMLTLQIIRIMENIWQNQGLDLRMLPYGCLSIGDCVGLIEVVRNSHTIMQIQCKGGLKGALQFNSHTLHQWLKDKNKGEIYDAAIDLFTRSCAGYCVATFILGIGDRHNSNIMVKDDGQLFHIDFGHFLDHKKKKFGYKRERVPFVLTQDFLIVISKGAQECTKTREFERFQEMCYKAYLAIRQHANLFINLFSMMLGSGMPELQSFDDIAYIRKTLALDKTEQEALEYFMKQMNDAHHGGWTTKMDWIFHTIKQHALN
`Cc1nn2ccccc2c1-c1nc(-c2ccoc2)c(-c2nnc[nH]2)s1` yielded a half-inhibitory concentration (IC50) below 0.1 µM.

`CC(=O)Nc1cc(-c2nc(-c3ccc(Cl)cc3Cl)c(-c3ncc[nH]3)s2)ccn1` showed a 50% inhibitory concentration (IC50) below 0.1 µM.

The molecule `COC(=O)Nc1cc(-c2sc(-c3nnc[nH]3)c(-c3ccc(Cl)cc3Cl)c2C#N)ccn1` had an IC50 below 0.1 µM.

Regarding `Cc1nc2ccc(CN(CCN)Cc3ccccc3)cn2c1-c1nc(-c2ccccc2)c(-c2nnc[nH]2)s1`, the IC50 was below 0.1 µM.

Molecule `CC(=O)Nc1cc(-c2sc(-c3nccn3Cc3ccccc3)c(-c3ccc(Cl)cc3Cl)c2C#N)ccn1` displayed a 50% inhibitory concentration (IC50) below 0.1 µM.

`Nc1cc(-c2nc(-c3ccc(Cl)cc3Cl)c(-c3ncc[nH]3)s2)ccn1`: the IC50 is below 0.1 µM.

With `Cc1nn2ccccc2c1-c1cc(-c2ccccc2)c(-c2nnc[nH]2)s1`, the IC50 is below 0.1 µM.

On to `Cc1nn2ccc(OCCN3CCOCC3)cc2c1-c1nc(-c2ccccc2F)c(-c2nc[nH]n2)s1`, for which the IC50 is below 0.1 µM.

Molecule `N#Cc1c(-c2ccnc(NS(N)(=O)=O)c2)sc(-c2nnc[nH]2)c1-c1ccc(Cl)cc1Cl` came in with a 50% inhibitory concentration (IC50) of 0.1 to 1 µM.

`CCOc1nc(-c2ccnc(NC(=O)C(C)C)c2)sc1-c1nnc[nH]1` registered an IC50 of 0.1 to 1 µM.

Regarding `COc1ccc(Cl)c(-c2nc(-c3ccnc(NC(C)=O)c3)sc2-c2ncc[nH]2)c1`, the half-maximal inhibitory concentration (IC50) was below 0.1 µM.

Take `CC(=O)Nc1cc(-c2nc(-c3ccc4c(c3)OCO4)c(-c3ncc[nH]3)s2)ccn1`: the IC50 was below 0.1 µM.

`CC(=O)Nc1cc(-c2nc(-c3ccc(CO)cc3)c(-c3ncc[nH]3)s2)ccn1`: the IC50 lay within 0.1 to 1 µM.

`CC(=O)Nc1cc(-c2nc(-c3cn(C)nc3C(F)(F)F)c(-c3ncc[nH]3)s2)ccn1` displayed a half-inhibitory concentration (IC50) below 0.1 µM.

Molecule `Cc1nn2ccccc2c1-c1nc(-c2ccc(NC(=O)OCc3ccccc3)cc2)c(-c2nc[nH]n2)s1` yielded an IC50 of 0.1 to 1 µM.

In turn, `Nc1cc(-c2nc(-c3ccc(Cl)cc3Cl)c(-c3ncc[nH]3)s2)ncn1` gave an IC50 of 0.1 to 1 µM.

Regarding `N#Cc1c(-c2cc(N)ncn2)sc(C(N)=O)c1-c1ccc(Cl)cc1Cl`, the IC50 fell in the range of 0.1 to 1 µM.

As to `Cc1nn2ccccc2c1-c1nc(-c2c(F)cccc2Cl)c(-c2nc[nH]n2)s1`, the half-maximal inhibitory concentration (IC50) is below 0.1 µM.

`COc1ccc(-c2nc(-c3ccnc(NC(C)=O)c3)sc2-c2ncc[nH]2)cc1` displayed an IC50 of 0.1 to 1 µM.

Take `CC(=O)Nc1cc(-c2nc(-c3ccccc3C(F)(F)F)c(-c3nnc[nH]3)s2)ccn1`: the 50% inhibitory concentration (IC50) fell in the range of 0.1 to 1 µM.

For `Cc1nn2ccc(OC3CCN(C(=O)CO)CC3)cc2c1-c1nc(-c2ccccc2)c(-c2nnc[nH]2)s1`, the IC50 was below 0.1 µM.

The molecule `Cc1nn2ccc(OCCN3CCCCC3)cc2c1-c1nc(-c2ccccc2)c(-c2nnc[nH]2)s1` came in with a half-inhibitory concentration (IC50) below 0.1 µM.

Molecule `Cc1nn2ccccc2c1-c1nc(-c2cccc(OCc3ccccc3)c2)c(-c2nc[nH]n2)s1` gave a half-inhibitory concentration (IC50) of 0.1 to 1 µM.

With `CNc1cc(-c2sc(-c3ncc[nH]3)c(-c3ccc(Cl)cc3Cl)c2C#N)ccn1`, the IC50 is below 0.1 µM.

Turning to `O=C1CCc2c(-c3cc(-c4ccc(Cl)cc4Cl)c(-c4ncc[nH]4)s3)ccnc2N1`, the half-inhibitory concentration (IC50) was below 0.1 µM.

`CCNC(=O)Nc1cc(-c2nc(OCC)c(-c3nc[nH]n3)s2)ccn1`: the 50% inhibitory concentration (IC50) lay within 0.1 to 1 µM.

For the molecule `COc1cccc(Cl)c1-c1nc(-c2c(C)nn3ccccc23)sc1-c1nc[nH]n1`, the half-inhibitory concentration (IC50) is below 0.1 µM.

Turning to `Cc1nn2ccccc2c1-c1nc(-c2ccccc2OCc2ccccc2)c(-c2nc[nH]n2)s1`, the half-inhibitory concentration (IC50) fell in the range of 0.1 to 1 µM.

Regarding `O=C(CCN1CCOCC1)Nc1cc(-c2nc(-c3ccccc3)c(-c3nnc[nH]3)s2)ccn1`, the IC50 was in the range of 0.1 to 1 µM.

With `N#Cc1c(-c2ccnc(NCCO)n2)sc(-c2nnc[nH]2)c1-c1ccc(Cl)cc1Cl`, the half-inhibitory concentration (IC50) was below 0.1 µM.

Turning to `CC(=O)Nc1cc(-c2sc(-c3nccn3Cc3ccc(F)cc3)c(-c3ccc(Cl)cc3Cl)c2C#N)ccn1`, the IC50 was 0.1 to 1 µM.

Consider `Cc1nn2ccsc2c1-c1nc(-c2ccccc2)c(-c2ncc[nH]2)s1`, for which the IC50 is below 0.1 µM.

As to `Clc1ccc(-c2cc(-c3ncnc4[nH]ccc34)sc2-c2ncc[nH]2)c(Cl)c1`, the half-maximal inhibitory concentration (IC50) was below 0.1 µM.

On to `Cc1nc2ccc(CN(C)CCN)cn2c1-c1nc(-c2ccccc2)c(-c2nnc[nH]2)s1`, for which the IC50 is below 0.1 µM.

For `Cc1nn2ccccc2c1-c1nc(-c2ccccc2)c(-c2nnc[nH]2)s1`, the concentration for half-maximal inhibition (IC50) is below 0.1 µM.

`Cc1nn2ccc(OCCCN3CCOCC3)cc2c1-c1nc(-c2ccccc2)c(-c2nc[nH]n2)s1`: the 50% inhibitory concentration (IC50) is below 0.1 µM.

For `c1ccc(-c2nc(-c3ccnc4[nH]ccc34)sc2-c2nnc[nH]2)cc1`, the IC50 is below 0.1 µM.

For `c1ccc(-c2nc(-c3ccnc4ccsc34)sc2-c2nnc[nH]2)cc1`, the IC50 is below 0.1 µM.

Turning to `COCCCNc1cc(-c2sc(-c3nnc[nH]3)c(-c3ccc(Cl)cc3Cl)c2C#N)ccn1`, the concentration for half-maximal inhibition (IC50) lay within 0.1 to 1 µM.

`Cc1nc2ccc(-c3cnn(C)c3)cn2c1-c1nc(-c2ccccc2)c(-c2nc[nH]n2)s1` showed an IC50 below 0.1 µM.

In the case of `Cc1nn2ccccc2c1-c1nc(-c2ccccc2F)c(-c2nnc[nH]2)s1`, the IC50 was below 0.1 µM.

The molecule `COc1ncccc1-c1nc(-c2ccnc(NC(C)=O)c2)sc1-c1nnc[nH]1` gave an IC50 of 0.1 to 1 µM.

The molecule `CC(=O)Nc1cc(-c2sc(-c3nccn3Cc3ccccn3)c(-c3ccc(Cl)cc3Cl)c2C#N)ccn1` showed an IC50 of 0.1 to 1 µM.

In turn, `N#Cc1c(-c2ccnc(NCCCO)n2)sc(-c2nnc[nH]2)c1-c1ccc(Cl)cc1Cl` gave an IC50 below 0.1 µM.

For the molecule `CCOc1nc(-c2ccnc(NC(=O)c3ccc(OC)cc3)c2)sc1-c1nnc[nH]1`, the IC50 was in the range of 0.1 to 1 µM.

Regarding `Cc1nn2ccccc2c1-c1nc(-c2cc(F)ccc2F)c(-c2nc[nH]n2)s1`, the IC50 is below 0.1 µM.

`Cc1nc2ccc(CCN)cn2c1-c1nc(-c2ccccc2)c(-c2nnc[nH]2)s1`: the IC50 is below 0.1 µM.

`Cc1nn2ccc(OCCNC(=O)C(C)(C)N)cc2c1-c1nc(-c2ccccc2)c(-c2nc[nH]n2)s1` displayed an IC50 below 0.1 µM.

Turning to `C[C@H](O)C(=O)Nc1cc(-c2sc(-c3nnc[nH]3)c(-c3ccc(Cl)cc3Cl)c2C#N)ccn1`, the IC50 lay in the range of 0.1 to 1 µM.

Molecule `COCCNc1cc(-c2sc(-c3nnc[nH]3)c(-c3ccc(Cl)cc3Cl)c2C#N)ccn1` gave an IC50 of 0.1 to 1 µM.

Take `N#Cc1c(-c2ccnc(N)n2)sc(C(N)=O)c1-c1ccc(Cl)cc1Cl`: the IC50 is below 0.1 µM.

The molecule `Clc1ccc(-c2cc(-c3ccnc4sccc34)sc2-c2ncc[nH]2)c(Cl)c1` registered an IC50 below 0.1 µM.

On to `N#Cc1c(-c2ccncc2)sc(C(N)=O)c1-c1ccc(Cl)cc1Cl`, for which the 50% inhibitory concentration (IC50) lay within 0.1 to 1 µM.

Regarding `COc1ccc(-c2ccc3nc(C)c(-c4nc(-c5ccccc5)c(-c5nc[nH]n5)s4)n3c2)cc1OC`, the IC50 was below 0.1 µM.

For `C=CCOc1nc(-c2c(C)nn3ccccc23)sc1-c1nnc[nH]1`, the 50% inhibitory concentration (IC50) is below 0.1 µM.

In the case of `COc1ccc(-c2nc(-c3ccnc(NC(C)=O)c3)sc2-c2ncc[nH]2)c(Cl)c1`, the IC50 is below 0.1 µM.

Take `Cc1nn2ccccc2c1-c1nc(-c2ccc[nH]2)c(-c2nc[nH]n2)s1`: the IC50 was in the range of 0.1 to 1 µM.

`Cc1nn2ccccc2c1-c1nc(-c2cnc3[nH]ccc3c2)c(-c2nc[nH]n2)s1` showed an IC50 below 0.1 µM.

For `CC(=O)Nc1cc(-c2nc(-c3ccc(Cl)cc3Cl)c(-c3ncc[nH]3)s2)c(C)cn1`, the 50% inhibitory concentration (IC50) was 0.1 to 1 µM.

With `Cc1nn2ccccc2c1-c1nc(-c2ccc(F)cc2F)c(-c2nc[nH]n2)s1`, the IC50 is below 0.1 µM.

Consider `Cc1nc2ccc(C=O)cn2c1-c1nc(-c2ccccc2)c(-c2nnc[nH]2)s1`, for which the IC50 was below 0.1 µM.

Molecule `CC(=O)Nc1cc(-c2nc(-c3ccc(O)cc3)c(-c3ncc[nH]3)s2)ccn1` returned a half-maximal inhibitory concentration (IC50) of 0.1 to 1 µM.

The molecule `CC(=O)Nc1cc(-c2nc(-c3cccc4cnccc34)c(-c3ncc[nH]3)s2)ccn1` gave an IC50 of 0.1 to 1 µM.

For the molecule `Cc1nn2ccccc2c1-c1nc(C2CCOCC2)c(-c2nnc[nH]2)s1`, the half-inhibitory concentration (IC50) is below 0.1 µM.

Molecule `N#Cc1c(-c2ccnc(N)c2)sc(-c2ncc[nH]2)c1-c1ccc(Cl)cc1Cl` had an IC50 below 0.1 µM.

`CC(=O)Nc1cc(-c2sc(-c3nccn3C)c(-c3ccc(Cl)cc3Cl)c2C#N)ccn1` came in with a concentration for half-maximal inhibition (IC50) of 0.1 to 1 µM.

`Nc1cc(-c2nc(-c3ccccc3)c(-c3nnc[nH]3)s2)ccn1`: the IC50 is 0.1 to 1 µM.

In turn, `Cc1nn2ccccc2c1-c1nc(-c2c(F)cccc2F)c(-c2nc[nH]n2)s1` came in with a concentration for half-maximal inhibition (IC50) below 0.1 µM.

The molecule `Clc1cc(-c2nc(-c3ccccc3)c(-c3nnc[nH]3)s2)ccn1` returned an IC50 of 0.1 to 1 µM.

`CC(=O)Nc1cc(-c2nc(-c3ccc(Cl)cc3Cl)c(-c3ncc[nH]3)s2)ncn1` had an IC50 below 0.1 µM.

Consider `Clc1ccc(-c2cc(-c3ncnc4[nH]cnc34)sc2-c2ncc[nH]2)c(Cl)c1`, for which the IC50 was 0.1 to 1 µM.

The molecule `Cc1cccc(C)c1-c1nc(-c2c(C)nn3ccccc23)sc1-c1nc[nH]n1` gave an IC50 below 0.1 µM.

In turn, `C/C=C/c1nc(-c2c(C)nn3ccccc23)sc1-c1nnc[nH]1` had an IC50 below 0.1 µM.

Take `CC(=O)NCCOc1ccn2nc(C)c(-c3nc(-c4ccccc4)c(-c4nc[nH]n4)s3)c2c1`: the half-maximal inhibitory concentration (IC50) is below 0.1 µM.

In the case of `Nc1cc(-c2cc(-c3ccc(Cl)cc3Cl)c(-c3ncc[nH]3)s2)ccn1`, the half-maximal inhibitory concentration (IC50) is below 0.1 µM.

`Cc1nn2ccccc2c1-c1nc(-c2ccccc2Cl)c(-c2nnc[nH]2)s1` yielded a half-inhibitory concentration (IC50) below 0.1 µM.

As to `O=c1ccc2c(-c3nc(-c4ccc(Cl)cc4Cl)c(-c4ncc[nH]4)s3)ccnc2[nH]1`, the IC50 was below 0.1 µM.

On to `CC(=O)Nc1cc(-c2sc(-c3nccn3Cc3cccnc3)c(-c3ccc(Cl)cc3Cl)c2C#N)ccn1`, for which the half-inhibitory concentration (IC50) was 0.1 to 1 µM.

The molecule `CC(C)C(=O)Nc1cc(-c2sc(-c3ncc[nH]3)c(-c3ccc(Cl)cc3Cl)c2C#N)ccn1` came in with an IC50 below 0.1 µM.

`Cc1nn2ccccc2c1-c1nc(-c2ccccc2N)c(-c2nc[nH]n2)s1` displayed an IC50 below 0.1 µM.

Turning to `Cc1nn(C)c(C)c1-c1nc(-c2c(C)nn3ccccc23)sc1-c1nc[nH]n1`, the half-inhibitory concentration (IC50) was below 0.1 µM.

In turn, `Cc1nn2ccc(OCc3ccc(C(F)(F)F)nc3)cc2c1-c1nc(-c2ccccc2)c(-c2nc[nH]n2)s1` had an IC50 below 0.1 µM.

Turning to `CC(=O)Nc1cc(-c2nc(-c3ccccc3Cl)c(-c3ncc[nH]3)s2)ccn1`, the half-maximal inhibitory concentration (IC50) is below 0.1 µM.

In turn, `CNc1nccc(-c2sc(-c3nnc[nH]3)c(-c3ccc(Cl)cc3Cl)c2C#N)n1` gave an IC50 below 0.1 µM.

The molecule `CC(=O)Nc1cc(-c2nc(-c3ccc4nonc4c3)c(-c3ncc[nH]3)s2)ccn1` had a 50% inhibitory concentration (IC50) of 0.1 to 1 µM.

Consider `CC(=O)Nc1cc(-c2sc(-c3ccn[nH]3)c(-c3ccc(Cl)cc3Cl)c2C#N)ccn1`, for which the 50% inhibitory concentration (IC50) was below 0.1 µM.

For orientation: IC50 means the concentration that inhibits the measured activity by half. A lower IC50 goes with greater potency.
